Article PMC9182007, “Statistical Methods in the Study of Protein Binding and Its Relationship to Drug Bioavailability in Breast Milk” (Molecules, 2022)
Where two headings read alike, the source gives them in different places.

Key:
[1] = RP TLC on non-impregnated control plates; format: physicochemical; conditions: for CRP (Rf, control RP plate): Table S4, non-impregnated RP plate, acetonitrile/acetate buffer pH 7.4/methanol 60:20:20
Procedure: (§1) For TLC chromatography, glass plates 20 × 20 cm from Merck, covered with silica gel with the addition of a fluorescent indicator, were used. Normal phase (NP) plates were used with standard Merck TLC Silica gel 60 F254 plates, while in reverse phase (RP) silanized plates RP-2: Merck TLC Silica gel 60 RP-2 F254 were used.
(§2) Normal and reversed phase thin layer chromatography (NP TLC and RP TLC respectively) was performed using silica-gel-coated glass plates. Half of them were covered with 2 mg/mL bovine serum albumin solution and half remained pure.
(§3) The mobility of the compounds was also determined on the plates with no protein as a modifier. […] The acetate buffer (20 mM) was prepared by dissolving 1.54 g of ammonium acetate in 1 L of distilled water. The pH was then adjusted with a concentrated ammonia solution using a pH meter. The plates were developed in standard, vertical chromatographic chambers, each time using 100 mL of the mobile phase, after the chamber was previously saturated with solvent vapors for approximately 1 h.
(§4) The unfolded-protein-impregnated plates and the control plates were scanned with a Desaga CD 60 densitometer. The values of the delay factor (Rf) were collected, i.e., the ratio of the distance traveled by the substance to be analyzed to the distance traveled through the front of the mobile phase. […] The experiment was repeated (for both BSA-coated and control plates) and the Rf values pooled are the mean of both series of experiments.

[2] = HPLC on immobilized artificial membrane column (HPLCIAM); format: physicochemical; conditions: for log k IAM: Table S5, IAM column, pH 7.4; for k IAM: Table S5, retention factor, IAM column, phosphate buffer pH 7.4/acetonitrile 80:20
Procedure: (§5) High performance liquid chromatography was performed using immobilized human serum albumin column (HPLCHSA) and immobilized artificial membrane (HPLCIAM). HPLC was the source of the log k values (logarithm of retention factor), log kHSA and log kIAM.
The second experiment was performed using an immobilized artificial membrane (IAM) column. The assay was also performed on a Perkin Elmer Series 200 instrument connected to a UV-VIS spectrometer as the detector. The analytical wavelength was the same for all compounds, at 210 nm. […] The mobile phase was a mixture of 10 mM phosphate buffer pH 7.4 and acetonitrile in the ratio 80:20 (v/v). The phosphate buffer was obtained by dissolving the finished tablet in the appropriate amount of distilled water (1 tablet per 200 mL). In this case, it was not necessary to adjust the pH of the buffer using a pH meter.
The phase flow through the system was set to 0.5 mL/min as recommended by the column manufacturer. The solutions were delivered to the column using an autosampler syringe, the injection size was 10 µL.
The experiment was then repeated and the collected retention rates were the mean values of both series.

[3] = NP TLC on non-impregnated control plates; format: physicochemical; conditions: for CNP (Rf, control NP plate): Table S3, non-impregnated NP plate, acetonitrile/acetate buffer pH 7.4/methanol 60:20:20
Procedure: as §1, §2, §3, §4

plasma protein = conditions: ref DrugBank [7], cited from earlier work
[4] = target: T1, human serum albumin (HSA) (Homo sapiens, UniProt P02768)
T1 sequence (P02768 25-609): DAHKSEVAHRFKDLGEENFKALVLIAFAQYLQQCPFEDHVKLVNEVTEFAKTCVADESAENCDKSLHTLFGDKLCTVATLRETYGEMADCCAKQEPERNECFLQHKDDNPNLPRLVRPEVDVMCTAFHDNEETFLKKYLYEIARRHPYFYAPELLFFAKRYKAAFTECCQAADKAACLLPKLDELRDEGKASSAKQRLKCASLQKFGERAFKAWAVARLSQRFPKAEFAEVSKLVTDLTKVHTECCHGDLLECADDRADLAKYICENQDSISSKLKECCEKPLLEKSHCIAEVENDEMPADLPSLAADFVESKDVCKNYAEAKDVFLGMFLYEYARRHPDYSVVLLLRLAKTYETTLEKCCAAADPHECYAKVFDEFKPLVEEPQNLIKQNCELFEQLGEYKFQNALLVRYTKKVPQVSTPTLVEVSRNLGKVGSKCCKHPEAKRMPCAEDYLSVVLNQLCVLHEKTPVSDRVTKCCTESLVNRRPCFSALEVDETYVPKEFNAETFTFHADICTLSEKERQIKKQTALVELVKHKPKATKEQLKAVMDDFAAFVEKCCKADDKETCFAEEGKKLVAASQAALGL
Procedure: as §5
(§6) High performance liquid chromatography was performed using a chromatography column with immobilized human serum albumin. The assay was performed on a Perkin Elmer Series 200 instrument connected to a UV-VIS spectrometer as detector. The analytical wavelength was the same for all compounds at 210 nm. […] The acetate buffer was prepared by dissolving 0.77 g of ammonium acetate in 1 L of distilled water. The pH was then adjusted with a concentrated ammonia solution using a pH meter.
(§7) The phase flow through the system was set to 0.9 mL/min as recommended by the column manufacturer. The solutions were delivered to the column using an autosampler syringe, the injection size was 10 µL. Since the column could not be thermostated, the room was kept at a constant temperature of 25 degrees Celsius.
(§8) Chromatographic data (retention coefficient, k, and derivative, log k) were obtained with TotalChrom software connected to an HPLC instrument. […] The experiment was then repeated and the collected retention rates were the mean values of both series.

[5] = ref DrugBank [7], cited from earlier work
[6] = target: T2, bovine serum albumin (BSA) (Bos taurus, UniProt P02769); experiment: NP TLC on plates impregnated with bovine serum albumin; format: binding; conditions: for NP (Rf, BSA-impregnated NP plate): Table S3, NP plate impregnated with 2 mg/mL BSA, pH 7.4 mobile phase
T2 construct: purchased Sigma Aldrich
T2 sequence (P02769 25-607): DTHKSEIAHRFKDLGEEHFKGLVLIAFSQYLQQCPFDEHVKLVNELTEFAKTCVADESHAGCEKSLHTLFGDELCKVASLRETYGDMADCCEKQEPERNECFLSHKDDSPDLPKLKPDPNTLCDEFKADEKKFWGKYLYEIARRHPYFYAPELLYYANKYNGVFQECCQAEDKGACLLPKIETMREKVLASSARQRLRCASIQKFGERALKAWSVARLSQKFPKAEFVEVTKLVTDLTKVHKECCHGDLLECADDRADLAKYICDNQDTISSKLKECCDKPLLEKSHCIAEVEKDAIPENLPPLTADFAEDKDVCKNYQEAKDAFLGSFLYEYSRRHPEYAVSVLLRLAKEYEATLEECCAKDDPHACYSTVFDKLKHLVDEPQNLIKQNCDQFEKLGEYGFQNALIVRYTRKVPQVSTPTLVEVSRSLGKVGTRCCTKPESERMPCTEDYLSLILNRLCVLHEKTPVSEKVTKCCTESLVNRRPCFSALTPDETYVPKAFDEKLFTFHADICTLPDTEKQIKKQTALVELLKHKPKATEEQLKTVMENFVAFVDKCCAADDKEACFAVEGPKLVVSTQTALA
Source text: Chromatographic descriptors were obtained in experiments, thin layer chromatography in normal (NP TLC) and reversed mode (RP TLC). The stationary phase was modified with bovine serum albumin (BSA). TLC was the source of retention factor (Rf) values, denoted in statistical models as NP and RP.
as §1
The stationary phase of the plates, both NP and RP, was modified with an aqueous solution of bovine serum albumin purchased from Sigma Aldrich (bovine serum albumin, lyophilized powder).
The impregnation of the plates was carried out with a 2 mg/mL solution applied to the surface using a Desaga SG 1 hand sprayer; the plates were then air dried. […] Normal and reversed phase thin layer chromatography (NP TLC and RP TLC respectively) was performed using silica-gel-coated glass plates. Half of them were covered with 2 mg/mL bovine serum albumin solution and half remained pure.
as §3, §4

[7] = cited from earlier work
[8] = target: T2, bovine serum albumin (BSA); experiment: RP TLC on plates impregnated with bovine serum albumin; format: binding; conditions: for RP (Rf, BSA-impregnated RP plate): Table S4, RP plate impregnated with 2 mg/mL BSA, pH 7.4 mobile phase
[9] = Milk-to-plasma (M/P) drug concentration ratio obtained in vivo, from literature; set-up: species or system human; conditions: Table S1, scale of drug penetration into milk 1-4
[10] = source not stated, cited from earlier work
[11] = target: T1, human serum albumin (HSA); experiment: in vitro; conditions: immobilized hsa column, pH 7.4
Procedure: as §5, §6, §7, §8

[12] = Table S1, plasma protein binding given as fraction
[13] = Table S5, retention factor, HSA column, pH 7.4, 25 degrees Celsius
[14] = Table S1, milk/plasma drug concentration ratio, in vivo
[15] = human, immobilized hsa column, pH 7.4
[16] = Table S6, external group (n = 38), given as fraction

Structure (SMILES) | CRP (Rf, control RP plate) [1] | log k IAM [2] | k IAM [2] | CNP (Rf, control NP plate) [3] | PB (plasma protein; [12]) | k HSA [4, 13] | CNS+/- ([5]; Table S1, coded 1/0) | NP (Rf, BSA-impregnated NP plate) [6] | M/P [7, 14] | RP (Rf, BSA-impregnated RP plate) [8] | M/P code [9] | BB vivo ([10]; Table S1) | chromatographic logD [11] | further results
NC(=O)N1c2ccccc2C=Cc2ccccc21 [carbamazepine] | 0.83 | 0.18 | 1.50 | 0.95 | 0.76 | 1.09 | 1 | 0.95 | 0.558 | 0.84 | 2 (2 corresponds to the range of 0.40–0.80—at the safety limit) | -0.070 |  | log k HSA ([4]; Table S5, HSA, pH 7.4): 0.04
OCCOCCN1CCN(C(c2ccccc2)c2ccc(Cl)cc2)CC1 (stereo not shown) [hydroxyzine] |  | 1.14 | 13.82 | 0.55 | 0.93 | 3.69 | 1 | 0.55 |  |  |  | 0.285 | 0.57 | 
CC(=O)Oc1ccccc1C(=O)O [acetylsalicylic acid] | 0.98 | -1.52 | 0.03 | 0.89 | 0.995 | 0.31 | 1 | 0.90 | 1.08 | 0.99 | 3 (3 range 0.81–1.20—possibly over the safety limit) |  | -0.51 | 
OCCN1CCN(CCC=C2c3ccccc3Sc3ccc(C(F)(F)F)cc32)CC1 [flupenthixol] | 0.66 | 1.71 | 51.21 | 0.51 | 0.95 | 15.36 | 1 | 0.52 | 1.15 | 0.66 | 3 (3 range 0.81–1.20—possibly over the safety limit) |  | 1.19 | 
CSc1ccc2c(c1)N(CCC1CCCCN1C)c1ccccc1S2 (stereo not shown) [thioridazine] | 0.40 | 1.68 | 47.61 | 0.47 |  | 18.57 |  | 0.43 |  | 0.40 |  | 0.285 |  | log k HSA [4, 15]: 1.27
CN(C)CCCN1c2ccccc2Sc2ccccc21 [promazine] | 0.51 | -1.02 | 0.10 | 0.39 | 0.94 | 8.9 | 1 | 0.37 |  | 0.51 |  | 0.880 |  | log k HSA [4, 15]: 0.95
CC(=O)Nc1ccc(O)cc1 [paracetamol] | 0.92 | -0.49 | 0.32 | 0.93 | 0.25 | 0.28 | 1 | 0.94 | 0.84 | 0.92 | 3 (3 range 0.81–1.20—possibly over the safety limit) | -0.463 |  | log k HSA ([4]; Table S5, HSA, pH 7.4): -0.55
Cc1ccc(-c2nc3ccc(C)cn3c2CC(=O)N(C)C)cc1 [zolpidem] |  | 0.42 | 2.60 |  |  |  |  |  |  |  |  | -0.480 |  | k HSA ([4]; pH 7.4): 1.77
CCCC(CCC)C(=O)O [valproic acid] | 0.04 | -1.09 | 0.08 | 0.69 | 0.85 | 4.46 | 1 | 0.67 | 0.05 | 0.04 | 1 (Code 1 corresponds to drugs with an M/P value <0.40—completely safe) |  | 0.65 | 
C[C@](N)(Cc1ccc(O)c(O)c1)C(=O)O [methyldopa] | 0.85 | -1.02 | 0.10 | 0.38 | 0.2 | 0.36 | 0 | 0.37 | 0.265 | 0.86 | 1 (Code 1 corresponds to drugs with an M/P value <0.40—completely safe) |  | -0.44 | 
CCCN1C[C@H](CSC)C[C@@H]2c3cccc4[nH]cc(c34)C[C@H]21 [pergolide] | 0.55 |  |  | 0.48 | 0.9 | 0.07 | 1 | 0.47 |  | 0.53 |  | 0.300 |  | log k HSA [4, 15]: -1.15
CN(C)CCc1c[nH]c2ccc(Cn3cncn3)cc12 [rizatriptan] |  | 0.40 | 2.53 | 0.20 |  | 2.06 | 1 | 0.20 |  |  |  | 0.780 |  | log k HSA [4, 15]: 0.31
CCO [ethanol] |  |  |  |  |  |  |  |  |  |  |  |  |  | PB (plasma protein; [16]): 0.00; BB vivo ([10]; Table S6, external group): -0.16
CN(C)CCCN1c2ccccc2Sc2ccc(Cl)cc21 [chlorpromazine] | 0.49 | 1.77 | 58.85 | 0.43 | 0.9 | 13.33 |  | 0.43 |  | 0.50 |  | 0.950 | 1.12 | 
O=C1Nc2ccc(Cl)cc2C(c2ccccc2Cl)=NC1O (stereo not shown) [lorazepam] |  | 0.96 | 9.04 |  | 0.87 |  |  |  |  |  |  | 0.440 |  | k HSA ([4]; pH 7.4): 2.21
CN(C)CCC=C1c2ccccc2CCc2ccccc21 [amitriptyline] |  |  |  |  |  |  |  |  |  |  |  |  | 0.77 | CRP (Rf value from the non-impregnated RP plate, control) ([1]; Table S8, external group): 0.67; log kIAM ([2]; Table S9, external group): 0.19; CNP (Rf value from the non-impregnated NP plate, control) ([3]; Table S8, external group): 0.32; PB (plasma protein; [16]): 0.95; kHSA ([4]; Table S9, external group): 5.87; CNS+/- ([5]; Table S6, external group, coded 1/0): 1; NP (Rf value from the NP plate impregnated with 2 mg/mL BSA solution) ([6]; Table S8, external group): 0.31; M/P ([7]; Table S6, external group (n = 38)): 0.92; RP (Rf value from the RP plate impregnated with 2 mg/mL BSA solution) ([8]; Table S8, external group): 0.63; BB vivo ([10]; Table S6, external group): 0.89
O=C1CC2(CCCC2)CC(=O)N1CCCCN1CCN(c2ncccn2)CC1 [buspirone] |  | 0.84 | 7.00 |  |  |  |  |  |  |  |  | 0.480 |  | 
Nc1nnc(-c2cccc(Cl)c2Cl)c(N)n1 [lamotrigine] | 0.87 | -0.15 | 0.71 | 0.89 | 0.55 |  |  |  |  |  |  | 0.480 |  | 
COc1ccc2c(c1)c(CC(=O)O)c(C)n2C(=O)c1ccc(Cl)cc1 [indomethacin] |  | 0.03 | 1.08 |  | 0.97 |  |  |  |  |  |  | -1.260 |  | 
Cn1c(=O)c2[nH]cnc2n(C)c1=O [theophylline] |  | -0.94 | 0.12 |  |  |  |  |  |  |  |  | -0.341 |  | 
O=c1n(CCCN2CCN(c3cccc(Cl)c3)CC2)nc2ccccn12 [trazodone] | 0.76 | 0.97 | 9.30 | 0.71 | 0.92 | 2.22 | 1 | 0.72 | 0.53 | 0.74 | 2 (2 corresponds to the range of 0.40–0.80—at the safety limit) |  | 0.35 | 
CC(C)C[C@H]1C(=O)N2CCC[C@H]2[C@]2(O)O[C@](NC(=O)[C@@H]3C=C4c5cccc6[nH]c(Br)c(c56)C[C@H]4N(C)C3)(C(C)C)C(=O)N12 [bromocriptine] | 0.69 | 1.10 | 12.69 | 0.95 | 0.93 |  |  | 0.96 |  | 0.70 |  | -1.100 | 0.91 | k HSA ([4]; pH 7.4): 8.09
CCOC(=O)[C@H](CCc1ccccc1)N[C@@H](C)C(=O)N1CCC[C@H]1C(=O)O [enalapril] | 0.60 | -1.29 | 0.05 | 0.33 | 0.55 | 0.34 | 0 | 0.33 | 0.02 | 0.58 | 1 (Code 1 corresponds to drugs with an M/P value <0.40—completely safe) |  | -0.47 | 
